Experimental data taken from patent publication US11944604B1, “Nanoformulation of spriooxindole and methods for treating hepatocellular carcinoma” (KING SAUD UNIVERSITY, priority 2023, dated 2024).
pIC50: −log10 of the molar value. Like-named read-outs stand apart in the source and are kept apart here.

Key:
[1] = test system: HCT-116; assay: Anticancer potency and ligand efficiency scores, HCT-116; type: cell-based; conditions: Homo sapiens
Source text: (§1) LE is used to measure the efficiency of compounds and determine binding affinity (in terms of binding energy or pIC50) in relation to the number of heavy atoms in a molecule. This provides a way to compare the affinity of molecules corrected for their size.
(§2) LE represents the ratio of the affinity of a ligand divided by the number of heavy (non-hydrogen) atoms in the molecule (LE=ΔG/[number of heavy atoms. LE can be calculated according to the following equation: LE=(plC50×1.37)/NHA • where: • IC50=half-maximal inhibitory concentration (in term of molar concentration). • NHA=non-hydrogen atom. The recommended LE value for lead-likeness should be in the range of 0.3. The acceptable LE value for drug-likeness should be higher than 0.3.
(§3) LLE can be calculated as follows: LLE=pIC50−C log P

[2] = test system: HepG2; assay: Anticancer potency and ligand efficiency scores, HepG2; type: cell-based; conditions: Homo sapiens
Source text: as §1, §2, §3

[3] = test system: colon, liver and prostate cancer; conditions: anticancer activity against colon; cited from earlier work
[4] = Lipophilicity (log K as surrogate for log P); type: physicochemical
Procedure: An LLE value≥3 for a lead compound is acceptable, and for a drug candidate LLE value ≥5 is recommended. To get more accurate results, log P was calculated practically, and Log K was measured as indicator and surrogate for log p.

[5] = test system: PC-3; assay: Anticancer potency and ligand efficiency scores, PC-3; type: cell-based; conditions: Homo sapiens
Source text: as §1, §2, §3

[6] = test system: p53; assay: Immunohistochemistry of p53 in liver sections of CCl4-treated mice; type: in vivo
Procedure: (§4) Twenty five mice were treated with carbon tetrachloride (CCl4, from LOBA Chemie Pvt Ltd, Mumbai, India, 1:5 in corn oil) twice weekly via IP injection for 24 weeks. After that period of time, mice were distributed evenly into 5 groups of 5 mice. Group 1 was treated with the solvent 10% DMSO; group 2 was treated with a low dose of compound 4d (50 mg/kg/daily) for 14 days; group 3 was treated with a high dose of compound 4d (200 mg/kg) for 6 hours; group 4 was treated with a high dose of compound 4d (200 mg/kg) for 24 hours; and group 5 was treated with a high dose of compound 4d (200 mg/kg) for 48 hours.
(§5) The sections were de-paraffinized in xylene, then rehydrated. Endogenous tissue peroxidase was blocked by incubating the slides for 5 minutes in 0.3% hydrogen peroxide. Antigen retrieval was done by heating the sections in citrate buffer, at pH 6.0, in a microwave. Then, the sections were incubated with monoclonal mouse p53 (clone DO-7, Dako, USA), rabbit polyclonal caspase 3 antibody (CPP32) Ab-4 (ThermoScientific), or with monoclonal mouse Ki-67 antigen (clone MIB-1, Dako, USA).
(§6) The slides were counterstained with hematoxylin and then dehydrated in alcohol and cleared xylene. The immunohistochemical and pathological changes were examined by light microscopy (binocular, Olympus). Images were taken using a digital camera (Canon, 5 mega pixels, at 3.2× optical zoom). […]

[7] = test system: caspase 3; assay: Immunohistochemistry of caspase 3 in liver sections of CCl4-treated mice; type: in vivo; conditions: low dose daily for 14 days or high dose for 48 hours
Procedure: as §4, §5, §6

[8] = test system: colon cancer cells; conditions: cited from earlier work
[9] = test system: Ki-67; assay: Immunohistochemistry of Ki-67 in hepatocytes of CCl4-treated mice; type: in vivo; conditions: low (daily dose for 14 days) or high dose (single dose)
Procedure: as §4
The sections were de-paraffinized in xylene, then rehydrated. Endogenous tissue peroxidase was blocked by incubating the slides for 5 minutes in 0.3% hydrogen peroxide. Antigen retrieval was done by heating the sections in citrate buffer, at pH 6.0, in a microwave. […]
The statistical analysis was done using the software SPSS 19 for Microsoft Windows (SPSS Inc, Chicago, Illinois). A quantitative analysis of the number of hepatocytes with positive nuclear Ki-67 staining were tested using a one-way analysis of variance (ANOVA), with Duncan's multiple comparisons of the means to compare difference between means.
The level of proliferative Ki-67 marker was evaluated using immunohistochemistry. […]

[10] = test system: CCl4-induced liver cancer; assay: CCl4-induced liver cancer model: serum liver/kidney markers and H&E histopathology; type: in vivo, mice; set-up: GPT (ALT) / Creatinine / GOT (AST): unit not given here; conditions: for Creatinine / GOT (AST) / GPT (ALT): serum, mean ± SD; for mitotic activity of liver cells (H&E): CCl4-treated mice
Procedure: (§7) An in vivo study was carried out in Male Balb/c mice, each weighing 15-25 g. All mice were purchased from Medical Experimental Research Center (MERC), Mansoura University, Egypt. Mice were acclimatized for one week in the new animal care facility, at the Zoology Department, Mansoura University, Egypt, under specific pathogen-free (SPF) conditions, and provided with conventional food and drinking water before the study. All animal experiments were carried out following the guidelines of the faculty of Science, Mansoura University, Egypt.
as §4
At the end of each treatment, all mice were sacrificed, and blood and liver were collected for evaluation. The liver samples were washed in ice cold 1× phosphate buffered saline (PBS), and fixed in 10% buffered formalin till examination.
(§8) The blood was centrifuged to collect serum or plasma for biochemical analysis. The blood chemistry was evaluated to detect the level of serum alanine aminotransferase (ALT), serum aspartate aminotransferase (liver function test), and serum creatinine (kidney function test). Complete blood count analysis was carried out to detect the effect of compound 4d treatment on blood platelet count, because it has been reported that p53-MDM2 inhibitors cause high grade thrombocytopenia (i.e., decreased numbers of platelets).
(§9) The formalin-fixed liver specimens were embedded in paraffin, and sections were taken and prepared for hematoxylin and Eosin (H&E) staining. The slides were examined for hepatic architecture, degenerative changes, inflammatory changes, hepatocytes necrosis, mitosis, dysplastic changes and malignant transformation. 4 μm thick sections were prepared on coated slides.
An in vivo model was carried out to test the efficacy of compound 4d in treatment of liver cancer by applying two regimens of compound 4d: a single dose of 200 mg/kg and the treated mice were sacrificed after 6, 24 or 48 hours; or a daily dose of 50 mg/kg for 14 days. Liver cancer was induced chemically by CCl4 (1:5 dilution in corn oil, twice per week). […] The liver architecture was disturbed and there were cirrhotic nodules with bridging fibrosis (FIG. 3A).

[11] = test system: Male Balb/c mice; assay: Safety / tolerated dose study of compound 4d in healthy mice (blood count, blood chemistry, histopathology); type: in vivo; conditions: for Creatinine / GOT / GPT / Hb / Leukocytes / Platelets: mean ± SD
Procedure: as §7
The lethal dose of compound 4d was evaluated according to standard Dose-Probing Tests. Mice were divided into groups of three for evaluating the LD50. Each group received either a different concentration of compound 4d (ranging from 10 ng/Kg to 200 mg/Kg), in corn oil, or the solvent 10% DMSO in corn oil, by intraperitoneal (IP) injection.
The weight and physical symptoms of the mice were monitored for 14 days. After that, all groups were sacrificed, and the liver, kidney, heart, and spleen were collected for histological evaluation of the toxicity of compound 4d. Blood was collected from each mouse for evaluation of the effect of compound 4d on liver and kidney function.
as §8, §9
In order to evaluate the tolerated dose of compound 4d, mice were intraperitoneally injected with different doses, and physical symptoms were evaluated daily for 14 days. The maximum dose used was 200 mg/kg, because of the solubility limitation in DMSO. DMSO was adjusted to the tolerated dose 10% in corn oil.

[12] = healthy mice, IP, 50 mg/kg/14 d
[13] = healthy mice, IP, 200 mg/kg/24 hrs
[14] = healthy mice, IP, 200 mg/kg/48 hrs

With O=C(/C=C/c1ccc(Cl)cc1Cl)[C@H]1[C@H](c2ccc(Cl)cc2Cl)[C@H]2CSCN2[C@]12C(=O)Nc1ccccc12 [Compound 4d, (3R,6′S,7′R,7a′S)-7′-(2,4-dichlorophenyl)-6′-((E)-3-(2,4-dichlorophenyl)acryloyl)-1′,6′,7′,7a′-tetrahydro-3′H-spiro[indoline-3,5′-pyrrolo[1,2-c]thiazol]-2-one] the pIC50 ([1]; read-out: HCT-116 (unnamed value under the cell line head)) was 5.70, the IC50 ([1]; read-out: pIC50 (converted)) was 2.04 µM and the pIC50 ([2]; read-out: HepG2 (unnamed value under the cell line head)) was 6.07. For the same compound, the IC50 ([2]; read-out: IC50 (converted)) was 0.851 µM, the selectivity index [3] was “greater than 2” and the “log K” value [4] was 1.19. For the same compound, the pIC50 ([5]; read-out: PC-3 (unnamed value under the cell line head)) was 5.74, the IC50 ([5]; read-out: pIC50 (converted)) was 1.82 µM and the “level of p53 in liver sections” value ([6]; daily dose of 50 mg/kg for 14 days, versus mice only treated with CCl4) was “higher levels of detected p53”. For the same compound, the “activation of p53 in liver sections” value ([6]; single dose of 200 mg/kg for 6, 24 or 48 hours) was “time-dependent activation of p53”, the “level of caspase 3 in liver sections” value [7] was “induced the activation of caspase 3” and the “apoptosis (Bcl-2 inhibition, Bax activation)” value [8] was “induction of apoptosis”. For the same compound, the “colony formation and wound healing” value ([8]; treated colon cancer cells) was “inhibited colony formation, and wound healing”, the p21 gene expression ([8]; treated colon cancer cells) was “overexpression of cell cycle inhibitor p21 gene” and the p53 activation ([8]; treated colon cancer cells) was “activation of p53”. For the same compound, the “number of Ki-67 nuclear stained hepatocytes” value [9] was “significantly increased”, the Creatinine ([10]; CCl4 + 50 mg/kg/14 d) was 0.4120 ± 0.2 and the “GOT (AST)” value ([10]; CCl4 + 50 mg/kg/14 d) was 449.20 ± 109.2. The “GPT (ALT)” value ([10]; CCl4 + 50 mg/kg/14 d) was 2028.6 ± 168, the Creatinine ([10]; CCl4 + 200 mg/kg/6 hrs) was 0.4560 ± 0.1823 and the “GOT (AST)” value ([10]; CCl4 + 200 mg/kg/6 hrs) was 3419.00 ± 130.5. For the same compound, the “GPT (ALT)” value ([10]; CCl4 + 200 mg/kg/6 hrs) was 3430.4 ± 137.48, the Creatinine ([10]; CCl4 + 200 mg/kg/24 hrs) was 0.4860 ± 0.17 and the “GOT (AST)” value ([10]; CCl4 + 200 mg/kg/24 hrs) was 1161.00 ± 108.5. The “GPT (ALT)” value ([10]; CCl4 + 200 mg/kg/24 hrs) was 2209.0 ± 132.8, the Creatinine ([10]; CCl4 + 200 mg/kg/48 hrs) was 0.4660 ± 0.16 and the “GOT (AST)” value ([10]; CCl4 + 200 mg/kg/48 hrs) was 208.40 ± 9.32. For the same compound, the “GPT (ALT)” value ([10]; CCl4 + 200 mg/kg/48 hrs) was 961.6 ± 15.96, the “mitotic activity of liver cells (H&E)” value ([10]; daily dose of 50 mg/kg for 14 days) was “no mitotic activity” and the “mitotic activity of liver cells (H&E)” value ([10]; single dose of 200 mg/kg, after 6 hours) was 1 /10 H.P.F. For the same compound, the “mitotic activity of liver cells (H&E)” value ([10]; single dose of 200 mg/kg, longer incubation (24 hours)) was 1 /10 H.P.F, the “mitotic activity of liver cells (H&E)” value ([10]; single dose of 200 mg/kg, two days (48 hours)) was 2 /10 H.P.F and the “change in the behavior, feeding or drinking of the mice” value ([11]; IP, doses up to 200 mg/kg, observed daily for 14 days) was “did not cause any change”. For the same compound, the Creatinine [11, 12] was 0.49 ± 0.21, the GOT [11, 12] was 281.0 ± 231.9 and the GPT [11, 12] was 486.6 ± 339.9. It also gave a Hb [11, 12] of 10.16 ± 1.1, a Leukocytes [11, 12] of 12.5 ± 6.9 and a Platelets [11, 12] of 433.0 ± 304.6. The Creatinine [11, 13] was 0.67 ± 0.24, the GOT [11, 13] was 129.6 ± 56.5 and the GPT [11, 13] was 498.0 ± 228.8. It also gave a Hb [11, 13] of 10.1 ± 1.43, a Leukocytes [11, 13] of 10.6 ± 6.9 and a Platelets [11, 13] of 519 ± 302.9. The Creatinine [11, 14] was 0.692 ± 0.567, the GOT [11, 14] was 145.7 ± 198.9 and the GPT [11, 14] was 368.0 ± 208.1. For the same compound, the Hb [11, 14] was 10.4 ± 1.78, the Leukocytes [11, 14] was 13.6 ± 6.4 and the Platelets [11, 14] was 407.0 ± 281.6. The “pathological alteration in kidney, heart or spleen” value ([11]; healthy mice, histopathology) was “did not cause any pathological alteration”, the “platelet count (complete blood count)” value ([11]; healthy mice, in words) was “no aberrant or significant change” and the “liver architecture, hematoxylin and eosin staining” value ([11]; healthy mice, treatment for 14 days) was “normal liver architecture without any degenerative changes”.
